Experiments:
Assay in all cases: in vitro antibacterial evaluation, MIC by broth dilution
Type in all cases: cell-based
Escherichia coli = details: 18 hours at 35° C.
Staphylococcus sp. = details: broth dilution, 18 hours at 35° C.
How it was run: (§1)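 Step 1: dilute antibiotic across 64-0.06 μg/mL in Muller-Hinton II […]. Step 2: inoculate at 5×10^5 CFU/mL.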

Streptococcus sp. = details: broth dilution, 18 hours at 35° C.
How it was run: as §1

Enterococcus sp. = details: broth dilution, 18 hours at 35° C.
How it was run: as §1

COc1ccc(COC2C(CO)OC(OC3C(CO)OC(Oc4ccc(CC5NC(=O)C(C(C)c6ccccc6)NC(=O)CNC(=O)C(CO)NC(=O)C(C(O)C6CNC(=N)N6C6OC(CO)C(O)C(O)C6O)NC(=O)C(C(O)C6CNC(=N)N6)NC5=O)cc4)C(O)C3O)C(O)C2O)cc1OCc1ccccc1 (stereo not shown) [Example 239a]
0.25 µg/mL: MIC Streptococcus pneumoniae (ATCC 6301) (Streptococcus sp.) | MIC Streptococcus pneumoniae (GC 4565) (Streptococcus sp.) | MIC Streptococcus pneumoniae (ATCC 6301) (Streptococcus sp.; inoculum 5×10^5 CFU/mL, strain ATCC 6301) | MIC Streptococcus pneumoniae (GC 4565) (Streptococcus sp.; inoculum 5×10^5 CFU/mL, strain GC 4565)
>64 µg/mL: MIC Escherichia coli (ATCC 25922) (Escherichia coli) | MIC Escherichia coli (GC 4559) (Escherichia coli)
8 µg/mL: MIC Enterococcus avium (GC 4558) (Enterococcus sp.) | MIC Enterococcus faecalis (ATCC 29212) (Enterococcus sp.) | MIC Enterococcus faecalis (GC 2242) (Enterococcus sp.) | MIC Enterococcus faecalis (GC 2691) (Enterococcus sp.) | MIC Enterococcus faecalis (GC 3059) (Enterococcus sp.) | MIC Enterococcus faecalis (GC 4552) (Enterococcus sp.) | MIC Enterococcus faecalis (GC 4553) (Enterococcus sp.) | MIC Enterococcus faecalis (GC 6189) (Enterococcus sp.) | MIC Enterococcus faecium (GC 2243) (Enterococcus sp.) | MIC Enterococcus faecium (GC 4556) (Enterococcus sp.) | MIC Enterococcus faecalis (ATCC 29212) (Enterococcus sp.; strain ATCC 29212) | MIC Enterococcus faecium (GC 2243) (Enterococcus sp.; strain GC 2243) | MIC Enterococcus faecalis (GC 4552) (Enterococcus sp.; strain GC 4552) | MIC Enterococcus faecalis (GC 4553) (Enterococcus sp.; strain GC 4553) | MIC Enterococcus faecium (GC 4556) (Enterococcus sp.; strain GC 4556) | MIC Enterococcus avium (GC 4558) (Enterococcus sp.; strain GC 4558) | MIC Enterococcus faecalis (GC 6189) (Enterococcus sp.; strain GC 6189) | MIC Enterococcus faecalis (GC 2242) (Enterococcus sp.; inoculum 5×10^5 CFU/mL, strain GC 2242) | MIC Enterococcus faecalis (GC 2691) (Enterococcus sp.; inoculum 5×10^5 CFU/mL, strain GC 2691) | MIC Enterococcus faecalis (GC 3059) (Enterococcus sp.; inoculum 5×10^5 CFU/mL, strain GC 3059)
4 µg/mL: MIC Staphylococcus aureus (ATCC 29213) (Staphylococcus sp.) | MIC Staphylococcus aureus (GC 1131) (Staphylococcus sp.) | MIC Staphylococcus aureus (GC 3053) (Staphylococcus sp.) | MIC Staphylococcus aureus (GC 4541) (Staphylococcus sp.) | MIC Staphylococcus aureus (GC 4542) (Staphylococcus sp.) | MIC Staphylococcus aureus (GC 4544) (Staphylococcus sp.) | MIC Staphylococcus aureus (GC 4545) (Staphylococcus sp.) | MIC Staphylococcus aureus (ATCC 29213) (Staphylococcus sp.; strain ATCC 29213) | MIC Staphylococcus aureus (GC 1131) (Staphylococcus sp.; strain GC 1131) | MIC Staphylococcus aureus (GC 3053) (Staphylococcus sp.; strain GC 3053) | MIC Staphylococcus aureus (GC 4541) (Staphylococcus sp.; strain GC 4541) | MIC Staphylococcus aureus (GC 4542) (Staphylococcus sp.; strain GC 4542) | MIC Staphylococcus aureus (GC 4544) (Staphylococcus sp.; strain GC 4544) | MIC Staphylococcus aureus (GC 4545) (Staphylococcus sp.; strain GC 4545) | MIC Enterococcus faecium (GC 4557) (Enterococcus sp.) | MIC Enterococcus faecium (GC 4557) (Enterococcus sp.; strain GC 4557)
1 µg/mL: MIC Coagulase Negative Staphylococcus (GC 4548) (Staphylococcus sp.) | MIC Coagulase Negative Staphylococcus (GC 4548) (Staphylococcus sp.; strain GC 4548) | MIC Streptococcus agalactiae (GC 4564) (Streptococcus sp.) | MIC Streptococcus agalactiae (GC 4564) (Streptococcus sp.; inoculum 5×10^5 CFU/mL, strain GC 4564)
2 µg/mL: MIC Escherichia coli (GC 4560) (Escherichia coli) | MIC Coagulase Negative Staphylococcus (GC 4547) (Staphylococcus sp.) | MIC Coagulase Negative Staphylococcus (GC 4549) (Staphylococcus sp.) | MIC Coagulase Negative Staphylococcus (GC 4551) (Staphylococcus sp.) | MIC Coagulase Negative Staphylococcus (GC 6257) (Staphylococcus sp.) | MIC Staphylococcus aureus (GC 3051) (Staphylococcus sp.) | MIC Staphylococcus aureus-SMITH (GC 4543) (Staphylococcus sp.) | MIC Staphylococcus haemolyticus (GC 4546) (Staphylococcus sp.) | MIC Staphylococcus aureus (GC 3051) (Staphylococcus sp.; strain GC 3051) | MIC Staphylococcus aureus-SMITH (GC 4543) (Staphylococcus sp.; strain GC 4543) | MIC Staphylococcus haemolyticus (GC 4546) (Staphylococcus sp.; strain GC 4546) | MIC Coagulase Negative Staphylococcus (GC 4547) (Staphylococcus sp.; strain GC 4547) | MIC Coagulase Negative Staphylococcus (GC 4549) (Staphylococcus sp.; strain GC 4549) | MIC Coagulase Negative Staphylococcus (GC 4551) (Staphylococcus sp.; strain GC 4551) | MIC Coagulase Negative Staphylococcus (GC 6257) (Staphylococcus sp.; strain GC 6257) | MIC Streptococcus pyogenes (GC 4563) (Streptococcus sp.) | MIC Streptococcus pyogenes (GC 4563) (Streptococcus sp.; inoculum 5×10^5 CFU/mL, strain GC 4563)
16 µg/mL: MIC Enterococcus faecalis (GC 4554) (Enterococcus sp.) | MIC Enterococcus faecalis (GC 4554) (Enterococcus sp.; strain GC 4554)
<0.06 µg/mL: MIC Streptococcus pneumoniae (GC 1894) (Streptococcus sp.) | MIC Streptococcus pneumoniae (GC 1894) (Streptococcus sp.; inoculum 5×10^5 CFU/mL, strain GC 1894)

— US6914045B2, “Glycopeptide antibiotics” (Wyeth Holdings Corporation, priority 2001, dated 2005)
